# Measured values as given in patent US8119630B2 (Arrow Therapeutics Limited, priority 2002, dated 2012).
# Where two headings read alike, the source gives them in different places.
# Legend:
# RSV = assay: XTT assay, RSV-infected Vero cells; assay type: cell-based, Respiratory Syncytial Virus (RSV); settings: Vero cells infected with RSV, m.o.i.≈0.2, 6 days at 33° C.
# Protocol: Examples 1 to 74 and 83 to 124 were tested using the following protocol.
# (§1) The inner 60 wells of 96 well tissue culture plates were seeded with Vero cells at 3×10^4 cells/well (1×10^4 cells/well for toxicity studies) in 100 or 150 μl of medium and incubated at 37° C. overnight or until nearing confluency. For primary screen, 25 μl compounds were added directly to 100 μl medium in single wells to duplicate plates. A third plate was prepared for simultaneous toxicity investigation.
# (§2) For follow-up investigation, 70 μl of compound in duplicate wells were added directly to culture medium at 3.2× final concentration and ½ log serially diluted down columns of plate. A duplicate plate was prepared for simultaneous toxicity investigation.
# (§3) Cells were infected with 25 μl RSV to give m.o.i.≈0.2. Some 100 μl of sterile distilled water were added to the outer wells of the plate and incubated at 33° C. for 6 days. Some 0.25 μl/ml PMS were added to stock XTT solution, final conc. […]. Then 25 μl warmed XTT/PMS solution were added to each well and incubated for 5 hours at 37° C. Plates were shaken (DynaTech Vari-Shaker) vigorously for 10 mins and allowed to cool for 15 mins before sealing. Absorbance at 450 nm was measured and data analysed using Microsoft Excel software.
# Maximum OD450nm reading (uninfected, untreated control cells) corresponded to 100% inhibition. Minimum OD450nm readings (infected control cells) corresponded to 0% inhibition. Log 10 concentration was plotted against OD450nm and IC50 (Table 1) values were calculated from either reading 50% value from graph or using regression analysis.
# Vero cells = assay: Simultaneous toxicity investigation (XTT), Vero cells; assay type: cell-based; design: unit not given here; settings: for TC50 (2d): Table 2, Examples 83 to 124, 2d; for TC50 (6d): Table 2, Examples 83 to 124, 6d
# Protocol: as §1, §2
# as §3, with “Some 100 μl of sterile distilled water were added to the outer wells of the plate and incubated at 33° C. for 6 days.” left out
# [1] = human respiratory syncytial virus, Vero, 144 h, read-out: XTT IC50 (uM), Table 2, Examples 83 to 124
# [2] = Table 2, Examples 83 to 124, read-out: XTT IC50
# [3] = human respiratory syncytial virus, Vero, 144 h, read-out: XTT IC50 (uM), Table 1
Compound,IC50 (RSV; [1]) [µM],TC50 (2d) (Vero cells),TC50 (6d) (Vero cells),IC50 (RSV; [2]) [µM],IC50 (RSV; [3]) [µM]
"O=C(Nc1cccc(Cl)c1Cl)NC1N=C(c2ccccc2)c2ccccc2NC1=O (stereo not shown) [Example 119, 1-(2,3-Dichloro-phenyl)-3-(2-oxo-5-phenyl-2,3-dihydro-1H-benzo[e][1,4]diazepin-3-yl)-urea]",2,>100,30,,
"Cc1cc(C)cc(NC(=O)NC2N=C(c3ccccc3)c3ccccc3NC2=O)c1 (stereo not shown) [Example 115, 1-(3,5-Dimethyl-phenyl)-3-(2-oxo-5-phenyl-2,3-dihydro-1H-benzo[e][1,4]diazepin-3-yl)-urea]",1.5,>100,60,,
"COc1ccccc1C(=O)NC1N=C(c2ccccc2)c2ccc(C)cc2NC1=O (stereo not shown) [Example 111, 2-Methoxy-N-(8-methyl-2-oxo-5-phenyl-2,3-dihydro-1H-benzo[e][1,4]diazepin-3-yl)-benzamide]",3,>100,>100,,
"COc1ccccc1CCC(=O)NC1N=C(c2ccccc2)c2ccccc2NC1=O (stereo not shown) [Example 96, 3-(2-Methoxy-phenyl)-N-(2-oxo-5-phenyl-2,3-dihydro-1H-benzo[e][1,4]diazepin-3-yl)propionamide]",5,>100,>100,,
"COc1ccc(C(=O)NC2N=C(c3ccccc3)c3ccccc3NC2=O)cc1[N+](=O)[O-] (stereo not shown) [Example 89, 4-Methoxy-3-nitro-N-(2-oxo-5-phenyl-2,3-dihydro-1H-benzo[e][1,4]diazepin-3-yl)benzamide]",0.8,>100,>100,,
"COc1ccccc1C(=O)NC1N=C(c2cccc(C(F)(F)F)c2)c2ccccc2NC1=O (stereo not shown) [Example 104, 2-Methoxy-N-[2-oxo-5-(3-trifluoromethyl-phenyl)-2,3-dihydro-1H-benzo[e][1,4]diazepin-3-yl]-benzamide]",5,>100,>100,,
"O=C(NCc1ccccc1F)NC1N=C(c2ccccc2)c2ccccc2NC1=O (stereo not shown) [Example 84, 1-(2-Fluoro-benzyl)-3-(2-oxo-5-phenyl-2,3-dihydro-1H-benzo[e][1,4]diazepin-3-yl)-urea]",2,>100,>100,,
"COc1ccc(C(=O)NC2N=C(c3ccccc3F)c3cc(Cl)ccc3NC2=O)cc1 (stereo not shown) [Example 83, N-[7-Chloro-5-(2-fluoro-phenyl)-2-oxo-2,3-dihydro-1H-benzo[e][1,4]diazepine-3-yl]-4-methoxy-benzamide]",6,>100,32,,
"COc1cc(Cl)ccc1C(=O)NC1N=C(c2ccccc2)c2ccccc2NC1=O (stereo not shown) [Example 88, 4-Chloro-2-methoxy-N-(2-oxo-5-phenyl-2,3-dihydro-1H-benzo[e][1,4]diazepin-3-yl)-benzamide]",0.3,100,40,,
"Cc1cccc(C)c1NC(=O)NC1N=C(c2ccccc2)c2ccccc2NC1=O (stereo not shown) [Example 120, 1-(2,6-Dimethyl-phenyl)-3-(2-oxo-5-phenyl-2,3-dihydro-1H-benzo[e][1,4]diazepin-3-yl)-urea]",6,>100,60,,
"COc1cccc(CCC(=O)NC2N=C(c3ccccc3)c3ccccc3NC2=O)c1 (stereo not shown) [Example 97, 3-(3-Methoxy-phenyl)-N-(2-oxo-5-phenyl-2,3-dihydro-1H-benzo[e][1,4]diazepin-3-yl)-propionamide]",5,>100,>100,,
"O=C(Nc1ccc(Br)cc1C(F)(F)F)NC1N=C(c2ccccc2)c2ccccc2NC1=O (stereo not shown) [Example 117, 1-(4-Bromo-2-trifluoromethyl-phenyl)-3-(2-oxo-5-phenyl-2,3-dihydro-1H-benzo[e][1,4]diazepin-3-yl)-urea]",6,60,100,,
"N-[5-(3-Chloro-phenyl)-2-oxo-5-phenyl-2,3-dihydro-1H-benzo[e][1,4]diazepin-3-yl]-4-methoxy-benzamide [Example 100]",,>100,100,4,
"1-(2-Chloro-6-methyl-phenyl)-3-(2-oxo-5-phenyl-2,3-dihydro-1H-benzo[e][1,4]diazepin-3-yl)-urea [Example 121]",,60,60,4,
"N-[5-(3-Chloro-phenyl)-2-oxo-5-phenyl-2,3-dihydro-1H-benzo[e][1,4]diazepin-3-yl]-4-nitro-benzamide [Example 102]",,>100,>100,7,
"CS(=O)(=O)c1ccc(C(=O)NC2N=C(c3ccccc3)c3ccccc3NC2=O)c(Cl)c1 (stereo not shown) [Example 112, 2-Chloro-4-methanesulfonyl-N-(2-oxo-5-phenyl-2,3-dihydro-1H-benzo[e][1,4]diazepin-3-yl)-benzamide]",1.5,>100,>100,,
"COc1ccccc1C(=O)NC1N=C(c2cccc(Cl)c2)c2ccccc2NC1=O (stereo not shown) [Example 99, N-[5-(3-Chloro-phenyl)-2-oxo-2,3-dihydro-1H-benzo[e][1,4]diazepin-3-yl]-2-methoxy-benzamide]",1,100,>100,,
"COc1cc(C(=O)NC2N=C(c3ccccc3)c3ccccc3NC2=O)ccc1[N+](=O)[O-] (stereo not shown) [Example 95, 3-Methoxy-4-nitro-N-(2-oxo-5-phenyl-2,3-dihydro-1H-benzo[e][1,4]diazepin-3-yl)-benzamide]",1.5,100,>100,,
"COc1cc([N+](=O)[O-])ccc1C(=O)NC1N=C(c2ccccc2)c2ccccc2NC1=O (stereo not shown) [Example 93, 2-Methoxy-4-nitro-N-(2-oxo-5-phenyl-2,3-dihydro-1H-benzo[e][1,4]diazepin-3-yl)-benzamide]",< 0.3,100,>100,,
"COc1cccc(C2=NC(NC(=O)c3ccccc3OC)C(=O)Nc3ccccc32)c1 (stereo not shown) [Example 109, 2-Methoxy-N-[5-(3-methoxy-phenyl)-2-oxo-2,3-dihydro-1H-benzo[e][1,4]diazepin-3-yl]-benzamide]",2,50,100,,
"COc1ccc(C(=O)NC2N=C(c3ccc(C(F)(F)F)cc3)c3ccccc3NC2=O)cc1 (stereo not shown) [Example 103, 4-Methoxy-N-[2-oxo-5-(4-trifluoromethyl-phenyl)-2,3-dihydro-1H-benzo[e][1,4]diazepin-3-yl]-benzamide]",7,>100,30,,
"COc1ccc(CCC(=O)NC2N=C(c3ccccc3)c3ccccc3NC2=O)cc1 (stereo not shown) [Example 98, 3-(4-Methoxy-phenyl)-N-(2-oxo-5-phenyl-2,3-dihydro-1H-benzo[e][1,4]diazepin-3-yl)-propionamide]",5,>100,>100,,
"Cc1cccc(CNC(=O)NC2N=C(c3ccccc3)c3ccccc3NC2=O)c1 (stereo not shown) [Example 86, 1-(3-Methyl-benzyl)-3-(2-oxo-5-phenyl-2,3-dihydro-1H-benzo[e][1,4]diazepin-3-yl)-urea]",3,>100,100,,
"COc1ccccc1C(=O)NC1N=C(c2ccccc2)c2cc(Cl)ccc2NC1=O (stereo not shown) [Example 57, N-(7-Chloro-2-oxo-5-phenyl-2,3-dihydro-1H-benzo[e][1,4]diazepin-3-yl)-2-methoxy-benzamide]",,,,,0.7
"O=C1Nc2ccccc2C(c2ccccc2)=NC1NS(=O)(=O)c1cccc(Br)c1 (stereo not shown) [Example 39, 3-Bromo-N-(2-oxo-5-phenyl-2,3-dihydro-1H-benzo[e][1,4]diazepin-3-yl)-benzenesulfonamide]",,,,,10
"O=C(Nc1ccccc1Cl)NC1N=C(c2ccccc2)c2ccccc2NC1=O (stereo not shown) [Example 70, 1-(2-Chloro-phenyl)-3-(2-oxo-5-phenyl-2,3-dihydro-1H-benzo[e][1,4]diazepin-3-yl)-urea]",,,,,1.5
"COc1ccc(CC(=O)NC2N=C(c3ccccc3)c3ccccc3NC2=O)cc1 (stereo not shown) [Example 62, 2-(4-Methoxy-phenyl)-N-(2-oxo-5-phenyl-2,3-dihydro-1H-benzo[e][1,4]diazepin-3-yl)-acetamide]",,,,,1.5
